US20240182945A1, “PRODUCTS FOR REGULATION OF EUKARYOTIC AND MICROBIAL CELLS GROWTH” (priority 2021, published 2024)

Assays:
[1] = test system: S.aureus (PP) and MM in sputum from children with pneumonia; experiment: Degree of eradication of PP and MM on Columbia agar with antibiotic at concentrations achievable at the site of infection; type: cell-based; design: key to Degree of primary pathogen eradication, evaluation of ABEPP: % of primary pathogen (PP) eliminated
Description: We next tried to select antibiotics based on building a probability model. Antibiotic efficacy was evaluated based on a novel parameters: • ABEPPMM100—antibiotic concentration that is required for the elimination of 100% “complex” PP+MM. • ABEPPMM99—antibiotic concentration that is required for the elimination of 99% “complex” PP+MM.
ABEPPMM90—antibiotic concentration that is required for the elimination of 90% “complex” PP+MM.
ABEPPMM50—antibiotic concentration that is required for the elimination of 50% “complex” PP+MM.
ABEPP100—antibiotic concentration that affecting on “complex” PP+MM is required for the elimination of 100% PP.
ABEPP99—antibiotic concentration that affecting on “complex” PP+MM is required for the elimination of 99% PP.
ABEPP90—antibiotic concentration that affecting on “complex” PP+MM is required for the elimination of 90% PP.
ABEPP50—antibiotic concentration that affecting on “complex” PP+MM is required for the elimination of 50% PP.
We used sputum from children with pneumonia, with S.aureus as confirmed PP. Patient 1—child • Patient 2—child • Patient 3—child

[2] = 3 h; cited from earlier work
P. aeruginosa = experiment: Growth of primary pathogen alone on antibiotic-supplemented Columbia agar; type: cell-based; settings: Bacterial set #3; Ceftazidime (2 μg/mL); Columbia agar with erythrocytes 5%, 24 h at 37 C
Description: Four sputum samples from patients with lung infections were used. Pure bacterial culture of each microorganisms was obtained by routine microbiological methods.
In this case this antibiotic at MIC of 16 ug/mL was used in the following studies. PP alone, or Microbial Modulators (MM) alone or the original sputum were plated on the wells of 24 well plate filled with nutrient Columbia agar supplemented with erythrocytes 5% and supplemented with antibiotics taken as MIC determined against PP, but not more than 16 μg/mL and incubated 24 h at 37 C.

S. aureus = experiment: Growth of microbial modulator alone on antibiotic-supplemented Columbia agar; type: cell-based; settings: Bacterial set #3; Ceftazidime (2 μg/mL); Columbia agar with erythrocytes 5%, 24 h at 37 C
B. thailandensis = type: cell-based; settings: Bacterial set #3; Ceftazidime (2 μg/mL); Columbia agar with erythrocytes 5%, 24 h at 37 C
[3] = test system: MIX—PP +BM (P. aeruginosa with microbial modulators); experiment: Growth of mix PP + MM (original sputum) on antibiotic-supplemented Columbia agar; type: cell-based; settings: Bacterial set #3; Ceftazidime (2 μg/mL); Columbia agar with erythrocytes 5%, 24 h at 37 C
[4] = test system: bacteria of sputum from patients with lung diseases; experiment: Sputum plated on 24-well plates with antibiotics at Cmax or C0-4 h, Algorithm #1 or #2; type: cell-based; also: key: '+'—presence of bacterial growth, antibiotic ineffective; '−'—absence of bacterial growth, antibiotic effective
Description: Pathological material (sputum) from patients with lung diseases was plated into wells of 24-well plates filled with a nutrient medium supplemented with erythrocytes 5%, to which antibiotics were added taken at different concentrations.
Group #1—antibiotics were taken at concentrations close to a maximum (peak) concentration achievable at the site of infection Cmax
Algorithm #1. Lab technician, analyzed the appearance of bacterial growth by comparing the signs of bacterial growth in each well supplemented with antibiotic(s) at certain timepoint, with the signs of bacterial growth in the same well at previous time point(s).
Algorithm #2. Lab technician analyzed the appearance of bacterial growth by comparing the signs of bacterial growth in each well supplemented with antibiotic(s) with bacterial growth in antibiotic-free control

[5] = test system: bacteria of sputum from patients with lung diseases; experiment: Standard antibiotic susceptibility study using the microbroth dilution method (Algorithm #3); type: cell-based; also: key: '+'—presence of bacterial growth, antibiotic ineffective; '−'—absence of bacterial growth, antibiotic effective
Text: Algorithm #3—Standard antibiotic susceptibility study using the microbroth dilution method.

[6] = Patient 1, C0-1 h, 24 h of growth
[7] = Patient 1, C0-2 h, 24 h of growth
[8] = Patient 1, C0-3 h, 24 h of growth
[9] = Patient 1, C0-4 h, 24 h of growth
[10] = Patient 1, C0-6 h, 24 h of growth
[11] = Patient 1, C0-8 h, 24 h of growth
[12] = Patient 1, C0-12 h, 24 h of growth
[13] = Patient 1, C0-24 h, 24 h of growth
[14] = Patient 1, C2-3 h, 24 h of growth
[15] = Patient 1, C3-4 h, 24 h of growth
[16] = Patient 1, C4-6 h, 24 h of growth
[17] = Patient 1, C6-8 h, 24 h of growth
[18] = Patient 1, C8-12 h, 24 h of growth
[19] = Patient 1, C12-24 h, 24 h of growth
[20] = Patient 1, Cmax × 2, 24 h of growth
[21] = Patient 2, C0-3 h, 24 h of growth
[22] = Patient 2, C0-4 h, 24 h of growth
[23] = Patient 2, C0-6 h, 24 h of growth
[24] = Patient 2, C0-8 h, 24 h of growth
[25] = Patient 2, C0-12 h, 24 h of growth
[26] = Patient 2, C0-24 h, 24 h of growth
[27] = Patient 2, C3-4 h, 24 h of growth
[28] = Patient 2, C4-6 h, 24 h of growth
[29] = Patient 2, C6-8 h, 24 h of growth
[30] = Patient 2, C8-12 h, 24 h of growth
[31] = Patient 2, C12-24 h, 24 h of growth
[32] = Patient 3, C0-3 h, 24 h of growth
[33] = Patient 3, C0-4 h, 24 h of growth
[34] = Patient 3, C0-6 h, 24 h of growth
[35] = Patient 3, C0-8 h, 24 h of growth
[36] = Patient 3, C0-12 h, 24 h of growth
[37] = Patient 3, C0-24 h, 24 h of growth
[38] = Patient 3, C3-4 h, 24 h of growth
[39] = Patient 3, C4-6 h, 24 h of growth
[40] = Patient 3, C6-8 h, 24 h of growth
[41] = Patient 3, C8-12 h, 24 h of growth
[42] = Patient 3, C12-24 h, 24 h of growth

SMILES: C[C@H]1COc2c(N3CCN(C)CC3)c(F)cc3c(=O)c(C(=O)O)cn1c23 [Levofloxacin]
- Degree of primary pathogen eradication, evaluation of ABEPP [1, 6]: 100
- Degree of primary pathogen eradication, evaluation of ABEPPMM [1, 6]: 99
- Degree of primary pathogen eradication, evaluation of ABEPP [1, 7]: 99
- Degree of primary pathogen eradication, evaluation of ABEPPMM [1, 7]: 99
- Degree of primary pathogen eradication, evaluation of ABEPP [1, 8]: 90
- Degree of primary pathogen eradication, evaluation of ABEPPMM [1, 8]: 90
- Degree of primary pathogen eradication, evaluation of ABEPP [1, 9]: 100
- Degree of primary pathogen eradication, evaluation of ABEPPMM [1, 9]: 100
- Degree of primary pathogen eradication, evaluation of ABEPP [1, 10]: 100
- Degree of primary pathogen eradication, evaluation of ABEPPMM [1, 10]: 100
- Degree of primary pathogen eradication, evaluation of ABEPP [1, 11]: 50
- Degree of primary pathogen eradication, evaluation of ABEPPMM [1, 11]: 50
- Degree of primary pathogen eradication, evaluation of ABEPP [1, 12]: 50
- Degree of primary pathogen eradication, evaluation of ABEPPMM [1, 12]: 50
- Degree of primary pathogen eradication, evaluation of ABEPP [1, 13]: 0
- Degree of primary pathogen eradication, evaluation of ABEPPMM [1, 13]: 0
- Degree of primary pathogen eradication, evaluation of ABEPP [1, 14]: 90
- Degree of primary pathogen eradication, evaluation of ABEPPMM [1, 14]: 90
- Degree of primary pathogen eradication, evaluation of ABEPP [1, 15]: 99
- Degree of primary pathogen eradication, evaluation of ABEPPMM [1, 15]: 99
- Degree of primary pathogen eradication, evaluation of ABEPP [1, 16]: 100
- Degree of primary pathogen eradication, evaluation of ABEPPMM [1, 16]: 100
- Degree of primary pathogen eradication, evaluation of ABEPP [1, 17]: 90
- Degree of primary pathogen eradication, evaluation of ABEPPMM [1, 17]: 90
- Degree of primary pathogen eradication, evaluation of ABEPP [1, 18]: 50
- Degree of primary pathogen eradication, evaluation of ABEPPMM [1, 18]: 50
- Degree of primary pathogen eradication, evaluation of ABEPP [1, 19]: 50
- Degree of primary pathogen eradication, evaluation of ABEPPMM [1, 19]: 50
- Degree of primary pathogen eradication, evaluation of ABEPP [1, 20]: 100
- Degree of primary pathogen eradication, evaluation of ABEPPMM [1, 20]: 99
- Degree of primary pathogen eradication, evaluation of ABEPP [1, 21]: 50
- Degree of primary pathogen eradication, evaluation of ABEPPMM [1, 21]: 50
- Degree of primary pathogen eradication, evaluation of ABEPP [1, 22]: 50
- Degree of primary pathogen eradication, evaluation of ABEPPMM [1, 22]: 50
- Degree of primary pathogen eradication, evaluation of ABEPP [1, 23]: 50
- Degree of primary pathogen eradication, evaluation of ABEPPMM [1, 23]: 50
- Degree of primary pathogen eradication, evaluation of ABEPP [1, 24]: 50
- Degree of primary pathogen eradication, evaluation of ABEPPMM [1, 24]: 50
- Degree of primary pathogen eradication, evaluation of ABEPP [1, 25]: 50
- Degree of primary pathogen eradication, evaluation of ABEPPMM [1, 25]: 0
- Degree of primary pathogen eradication, evaluation of ABEPP [1, 26]: 0
- Degree of primary pathogen eradication, evaluation of ABEPPMM [1, 26]: 0
- Degree of primary pathogen eradication, evaluation of ABEPP [1, 27]: 50
- Degree of primary pathogen eradication, evaluation of ABEPPMM [1, 27]: 50
- Degree of primary pathogen eradication, evaluation of ABEPP [1, 28]: 50
- Degree of primary pathogen eradication, evaluation of ABEPPMM [1, 28]: 50
- Degree of primary pathogen eradication, evaluation of ABEPP [1, 29]: 50
- Degree of primary pathogen eradication, evaluation of ABEPPMM [1, 29]: 50
- Degree of primary pathogen eradication, evaluation of ABEPP [1, 30]: 50
- Degree of primary pathogen eradication, evaluation of ABEPPMM [1, 30]: 0
- Degree of primary pathogen eradication, evaluation of ABEPP [1, 31]: 0
- Degree of primary pathogen eradication, evaluation of ABEPPMM [1, 31]: 0
- Degree of primary pathogen eradication, evaluation of ABEPP [1, 32]: 50
- Degree of primary pathogen eradication, evaluation of ABEPPMM [1, 32]: 50
- Degree of primary pathogen eradication, evaluation of ABEPP [1, 33]: 50
- Degree of primary pathogen eradication, evaluation of ABEPPMM [1, 33]: 0
- Degree of primary pathogen eradication, evaluation of ABEPP [1, 34]: 0
- Degree of primary pathogen eradication, evaluation of ABEPPMM [1, 34]: 0
- Degree of primary pathogen eradication, evaluation of ABEPP [1, 35]: 0
- Degree of primary pathogen eradication, evaluation of ABEPPMM [1, 35]: 0
- Degree of primary pathogen eradication, evaluation of ABEPP [1, 36]: 0
- Degree of primary pathogen eradication, evaluation of ABEPPMM [1, 36]: 0
- Degree of primary pathogen eradication, evaluation of ABEPP [1, 37]: 0
- Degree of primary pathogen eradication, evaluation of ABEPPMM [1, 37]: 0
- Degree of primary pathogen eradication, evaluation of ABEPP [1, 38]: 50
- Degree of primary pathogen eradication, evaluation of ABEPPMM [1, 38]: 50
- Degree of primary pathogen eradication, evaluation of ABEPP [1, 39]: 0
- Degree of primary pathogen eradication, evaluation of ABEPPMM [1, 39]: 0
- Degree of primary pathogen eradication, evaluation of ABEPP [1, 40]: 0
- Degree of primary pathogen eradication, evaluation of ABEPPMM [1, 40]: 0
- Degree of primary pathogen eradication, evaluation of ABEPP [1, 41]: 0
- Degree of primary pathogen eradication, evaluation of ABEPPMM [1, 41]: 0
- Degree of primary pathogen eradication, evaluation of ABEPP [1, 42]: 0
- Degree of primary pathogen eradication, evaluation of ABEPPMM [1, 42]: 0
- lung concentration after 3 h of administration [2]: 4.7 µg/mL

SMILES: CC(C)(O/N=C(\C(=O)N[C@@H]1C(=O)N2C(C(=O)[O-])=C(C[n+]3ccccc3)CS[C@H]12)c1csc(N)n1)C(=O)O [Ceftazidime]
- microbial growth, PA (PP alone) (P. aeruginosa): +
- microbial growth, SA (BM alone) (S. aureus): +
- microbial growth, BT (BM alone) (B. thailandensis): +
- Presence of PP in Mix (PP + MM) [3]: −
- ATB efficacy ([4]; Algorithm #1, antibiotic at C0-4 h): +
- ATB efficacy ([4]; Algorithm #1, antibiotic at Cmax): +
- ATB efficacy ([4]; Algorithm #2, antibiotic at C0-4 h): +
- ATB efficacy ([4]; Algorithm #2, antibiotic at Cmax): +
- ATB efficacy [5]: +
